Measured values as given in paper PMC11788587, “Validating Low‐Dose Iohexol as a Marker for Glomerular Filtration Rate by In Vitro and In Vivo Studies” (Clinical and Translational Science, 2025).
Where two headings read alike, the source gives them in different places.

Key:
hOAT1 = target: T1, hOAT1 (Homo sapiens, UniProt Q4U2R8); assay: Substrate assessment: iohexol uptake in 293 cells expressing hOAT1 vs control; type: in vitro ADME; settings: 10 μM iohexol, median (95% CI)
T1 construct: expressed in transfected cells; host or cells: HEK-293 (293) cells, pEBTetD plasmid, doxycycline-induced
T1 sequence (Q4U2R8 1-563): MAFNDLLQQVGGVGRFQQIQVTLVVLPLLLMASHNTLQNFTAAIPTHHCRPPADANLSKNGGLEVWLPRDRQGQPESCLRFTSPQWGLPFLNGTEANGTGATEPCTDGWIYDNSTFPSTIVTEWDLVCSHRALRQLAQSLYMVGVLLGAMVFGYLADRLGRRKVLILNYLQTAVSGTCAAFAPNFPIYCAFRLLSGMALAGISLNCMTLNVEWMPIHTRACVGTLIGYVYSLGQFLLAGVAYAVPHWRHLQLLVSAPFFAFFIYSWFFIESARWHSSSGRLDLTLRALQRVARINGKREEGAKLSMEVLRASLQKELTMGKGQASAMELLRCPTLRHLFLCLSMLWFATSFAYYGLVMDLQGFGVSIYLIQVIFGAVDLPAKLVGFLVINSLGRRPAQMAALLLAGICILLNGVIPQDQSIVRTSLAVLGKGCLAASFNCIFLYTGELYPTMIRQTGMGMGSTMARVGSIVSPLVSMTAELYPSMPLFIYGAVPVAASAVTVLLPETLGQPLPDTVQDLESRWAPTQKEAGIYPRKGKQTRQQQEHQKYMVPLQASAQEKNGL
Text: We characterized the inhibitory potential of iohexol on major drug transporters recommended by regulatory agencies, which were previously assessed in a clinical transporter phenotyping cocktail study. These transporters include hOAT1, hOAT3, hOCT1, hOCT2, hMATE1, hMATE2K, human organic anion transporter polypeptides (hOATP)1B1, hOATP1B3, and human multidrug resistance protein (hMDR)1. Additionally, we investigated whether iohexol is a substrate for any of the renal transporters among these, including hOAT1/3, hOCT1/2, and hMATE1/2K. Cell‐based uptake assays were used to assess the activities of hOAT1/3, hOCT1/2, hMATE1/2K, and hOATP1B1/1B3. Inside‐out membrane vesicle uptake assays were used to evaluate the activity of hMDR1.
For substrate assessments, iohexol was incubated with stably transfected HEK‐293 cells expressing one of the following transporters: hOAT1, hOAT3, hOCT1, hOCT2, hMATE1, or hMATE2K, as well as with control cells lacking transporter expression. Stably transfected cell lines containing pEBTetD plasmids with wild‐type human transporter cDNAs were generated as previously described. Transporter expression was induced by adding 1 μg/mL doxycycline to the growth medium for at least 20 h. Iohexol would be considered a substrate for these transporters if: (1) the ratio of iohexol uptake in cells expressing the transporter to that in control cells was ≥ 2, and (2) a known inhibitor of the transporter reduced iohexol uptake to ≤ 50% at concentrations ≥ 10 times its inhibition constant or half‐maximal inhibitory concentration.
Uptake assays were performed using stably transfected 293 cells, with or without the expression of one of the following transporters: hOAT1, hOAT3, hOCT1, hOCT2, hMATE1, or hMATE2K, as previously described.^1
For the substrate assessment, cells were incubated with 10 µM iohexol for 10 minutes and 30 minutes for each transporter. Inhibition assays were performed using specific standard substrates for each transporter: 10 µM para-aminohippuric acid (PAH) for hOAT1, 3 µM estrone-3-sulfate (E3S) for hOAT3, 50 µM metformin for hOCT1, 5 µM metformin for hOCT2, and 3 µM 1-methyl-4-phenylpyridinium (MPP+) for hMATE1 and hMATE2K. […]
R version 4.2.1 (R Foundation for Statistical Computing, Vienna, Austria) was used for statistical evaluations and data visualization. The data analysis approach for the in vitro study was detailed by Hsin CH et al..^1 In brief, for transport assays, the initial uptake rate was calculated by normalizing the substrate concentration to both the protein concentration and the incubation time for each dish or well. The transporter-mediated uptake rate (net uptake) was determined by performing an element-wise subtraction of uptake rates from different conditions. […]

[1] = Clinical trial in healthy volunteers, noncompartmental analysis of plasma and urine; type: in vivo, human; settings: for CL (plasma clearance, dose/AUC) / Ae0‐t (cumulative urinary excretion of unchanged iohexol) / Rmax (maximum observed excretion rate) / Vd / half-life / dose excreted / AUC: fasting, geomean (geoSD); for CL (plasma clearance, dose/AUC) / Vd / half-life / AUC: n=12, plasma; for Vd / half-life / dose excreted / AUC: human, iv; for Vd: read-out: Vz; for half-life: read-out: t1/2,λz (converted); for dose excreted: read-out: Recovery (percentage of dose recovered in urine)
P‐glycoprotein = tested on: P‐glycoprotein; parameters: method as in ref 16 Supawat et al.; settings: human cancer cell lines; not statistically significant; ref 16 Supawat et al.; cited from earlier work
[2] = Reference: 3235 mg i.v. bolus, urine, n=10
[3] = Test: 259 mg i.v. bolus, urine, n=10

## CC(=O)N(CC(O)CO)c1c(I)c(C(=O)NCC(O)CO)c(I)c(C(=O)NCC(O)CO)c1I (centres unmarked) [iohexol]
hOAT1; 10 minutes
  Differences in intracellular accumulation (expression on minus off): -0.39 (-3.4 to 1.1) pmol/mg protein
  Uptake ratio (transporter-expressing vs non-expressing cells): 0.91 (0.75 to 1.2)
hOAT1; 30 minutes
  Differences in intracellular accumulation (expression on minus off): 0.98 (-0.62 to 2.1) pmol/mg protein
  Uptake ratio (transporter-expressing vs non-expressing cells): 1.1 (0.95 to 1.3)
[1]; 259 mg test vs 3235 mg reference, urine, n=10
  T/R ratio (90% CIs) of urinary recovery: 1.06 (0.960–1.17)
[1]; Reference: 3235 mg i.v. bolus
  CL (plasma clearance, dose/AUC): 5.43 (1.19) L/h
  Vd: 32.4 L
  half-life: 4.14 h
[1]; [2]
  Ae0‐t (cumulative urinary excretion of unchanged iohexol): 3364 (1.14) mg
  Rmax (maximum observed excretion rate): 951 (1.12) mg/h
  dose excreted: 103%
[1]; Test: 259 mg i.v. bolus
  CL (plasma clearance, dose/AUC): 5.46 (1.15) L/h
  Vd: 26.1 L
  half-life: 3.32 h
[1]; [3]
  Ae0‐t (cumulative urinary excretion of unchanged iohexol): 273 (1.09) mg
  Rmax (maximum observed excretion rate): 73.7 (1.27) mg/h
  dose excreted: 106%
[1]; 259 mg, Test: 259 mg i.v. bolus, read-out: AUC0‐t
  AUC: 46.5 µg·h/mL
[1]; 259 mg, Test: 259 mg i.v. bolus, read-out: AUC0‐∞
  AUC: 46.7 µg·h/mL
[1]; 3235 mg, Reference: 3235 mg i.v. bolus, read-out: AUC0‐t
  AUC: 598 µg·h/mL
[1]; 3235 mg, Reference: 3235 mg i.v. bolus, read-out: AUC0‐∞
  AUC: 600 µg·h/mL
[1]; intraindividual coefficient of variation, test vs reference
  CVintra of CL: 5.29%
P‐glycoprotein
  Inhibitory effect on P-glycoprotein: mild inhibitory effect
